Reference: patent publication US9951049B2, “Pyrazole linked benzimidazole conjugates and a process for preparation thereof” (Council of Scientific & Industrial Reseach, priority 2014, dated 2018)
“Also recorded” adds a separate entry of the source. Read-outs that look alike come from different tables or passages of the source.

How the values were obtained:
[1] = test system: HL-60(TB); test: NCI SRB screen, HL-60(TB); assay type: cell-based; conditions: Homo sapiens, Leukemia, 48 h
[2] = test system: SR; test: NCI SRB screen, SR; conditions: Homo sapiens, 48 h, read-out: GI50 values
[3] = test system: HT29; test: NCI SRB screen, HT29; conditions: Homo sapiens, HT-29, 48 h, read-out: GI50 values
[4] = test system: KM12; test: NCI SRB screen, KM12; conditions: Homo sapiens, KM12, 48 h, read-out: GI50 values
[5] = test system: U251; test: NCI SRB screen, U251; conditions: Homo sapiens, U-251, 48 h, read-out: GI50 values
[6] = test system: A498; test: NCI SRB screen, A498; conditions: Homo sapiens, A498, 48 h, read-out: GI50 values
[7] = test system: ACHN; test: NCI SRB screen, ACHN; conditions: Homo sapiens, 48 h, read-out: GI50 values
[8] = test system: K-562; test: NCI SRB screen, K-562; conditions: Homo sapiens, K562, 48 h, read-out: GI50 values
[9] = test system: 786-0; test: NCI SRB screen, 786-0; conditions: Homo sapiens, 786-0, 48 h, read-out: GI50 values
[10] = test system: T-47D; test: NCI SRB screen, T-47D; conditions: Homo sapiens, T47D, 48 h, read-out: GI50 values
[11] = test system: HOP-62; test: NCI SRB screen, HOP-62; conditions: Homo sapiens, HOP-62, 48 h, read-out: GI50 values
[12] = test system: SF-268; test: NCI SRB screen, SF-268; conditions: Homo sapiens, SF-268, 48 h, read-out: GI50 values
[13] = test system: SNB-19; test: NCI SRB screen, SNB-19; conditions: Homo sapiens, SNB-19, 48 h, read-out: GI50 values
[14] = test system: CAKI-1; test: NCI SRB screen, CAKI-1; conditions: Homo sapiens, CAKI-1, 48 h, read-out: GI50 values
[15] = test system: DU-145; test: NCI SRB screen, DU-145; conditions: Homo sapiens, DU-145, 48 h, read-out: GI50 values
[16] = test system: HCT-116; test: NCI SRB screen, HCT-116; conditions: Homo sapiens, HCT-116, 48 h, read-out: GI50 values
[17] = test system: OVCAR-5; test: NCI SRB screen, OVCAR-5; conditions: Homo sapiens, OVCAR-5, 48 h, read-out: GI50 values
[18] = test system: OVCAR-8; test: NCI SRB screen, OVCAR-8; conditions: Homo sapiens, OVCAR-8, 48 h, read-out: GI50 values
[19] = test system: RXF 393; test: NCI SRB screen, RXF 393; conditions: Homo sapiens, RXF 393, 48 h, read-out: GI50 values
[20] = test system: HS 578T; test: NCI SRB screen, HS 578T; conditions: Homo sapiens, 48 h, read-out: GI50 values
[21] = test system: CCRF-CEM; test: NCI SRB screen, CCRF-CEM; conditions: Homo sapiens, 48 h, read-out: GI50 values
[22] = test system: NCI-H226; test: NCI SRB screen, NCI-H226; conditions: Homo sapiens, NCI-H226, 48 h, read-out: GI50 values
[23] = test system: NCI-H522; test: NCI SRB screen, NCI-H522
[24] = test system: MALME-3M; test: NCI SRB screen, MALME-3M; conditions: Homo sapiens, 48 h, read-out: GI50 values
[25] = test system: A549/ATCC; test: NCI SRB screen, A549/ATCC; conditions: Homo sapiens, A549, 48 h, read-out: GI50 values
[26] = test system: NCI/ADR-RES; test: NCI SRB screen, NCI/ADR-RES; conditions: Homo sapiens, 48 h, read-out: GI50 values
[27] = test system: MDA-MB-231/ATCC; test: NCI SRB screen, MDA-MB-231/ATCC; conditions: Homo sapiens, MDA-MB-231, 48 h, read-out: GI50 values
[28] = test system: Ovarian cancer cell lines; test: NCI SRB screen, Ovarian panel average; conditions: Homo sapiens, 48 h, read-out: Log10 GI50 (converted)
[29] = test system: Leukemia cell lines; test: NCI SRB screen, Leukemia panel average; conditions: Homo sapiens, 48 h, read-out: Log10 GI50 (converted)
[30] = test system: Melanoma cell lines; test: NCI SRB screen, Melanoma panel average; conditions: Homo sapiens, 48 h, read-out: Log10 GI50 (converted)
[31] = test system: Prostate cancer cell lines; test: NCI SRB screen, Prostate panel average; conditions: Homo sapiens, 48 h, read-out: Log10 GI50 (converted)
[32] = test system: MDA-MB-435; test: NCI SRB screen, MDA-MB-435 (Breast panel); conditions: Homo sapiens, MDA-MB-435, 48 h, read-out: GI50 values
[33] = test system: Breast Cancer cell lines; test: NCI SRB screen, Breast Cancer panel average; conditions: Homo sapiens, 48 h, read-out: Log10 GI50 (converted)
[34] = test system: fifty six human tumor cell lines; test: NCI human tumor cell line screen (48 h, SRB), all cell lines; conditions: for GI50: Homo sapiens; for anticancer activity (in words): human cancer cell lines of the NCI panel; for Log10 TGI mean graph midpoint (MG_MID): human tumor cell lines, mean over the panel, total growth inhibition
[35] = Homo sapiens, NCI-H522, 48 h, read-out: GI50 values, Non-small cell lung, NCI-H522
[36] = read-out: Log10 GI50 mean graph midpoint (MG_MID) (converted)

Structure (SMILES) | GI50 [1] [nM] | GI50 [2] [µM] | GI50 [3] [µM] | GI50 [4] [µM] | GI50 [5] [µM] | GI50 [6] [µM] | GI50 [7] [µM] | GI50 [8] [µM] | GI50 [9] [µM] | GI50 [10] [nM] | GI50 [11] [µM] | GI50 [12] [µM] | GI50 [13] [µM] | GI50 [14] [nM] | GI50 [15] [µM] | GI50 [16] [µM] | GI50 [17] [µM] | GI50 [18] [nM] | GI50 [19] [nM] | GI50 [20] [µM] | further results
COc1cc(-c2cc(-c3nc4ccccc4[nH]3)[nH]n2)cc(OC)c1OC [6f, 2-(3-(3,4,5-trimethoxyphenyl)-1H-pyrazol-5-yl)-1H-benzo[d]imidazole] | 2540 | 3.32 | 7.16 | 3.15 | 3.73 | 1.51 | 2.77 | 3.08 | 3.66 | 1110 | 3.54 | 6.43 | 1.78 | 2240 | 3.9 | 3.15 | 1.3 | 2350 | 1770 | 6.89 | GI50 [21]: 2120 nM; GI50 [22]: 1140 nM; GI50 [23, 35]: 1840 nM; GI50 ([23]; read-out: GI50 values, Non-small cell lung, NCI-H522, 48 h): 1870 nM; GI50 [24]: 1950 nM; GI50 [25]: 2430 nM; GI50 [26]: 2.88 µM; GI50 [27]: 3220 nM; GI50 [28]: 3.24 µM; GI50 [29]: 2290 nM; GI50 [30]: 2.09 µM; GI50 [31]: 2.88 µM; GI50 [32]: 930 nM; GI50 [33]: 2240 nM; GI50 ([34]; read-out: GI50 value range): 0.34 to 10 µM; GI50 [34, 36]: 2.88 µM; anticancer activity (in words) [34]: significant anticancer activity; also recorded: pronounced activities; Log10 TGI mean graph midpoint (MG_MID) [34]: −4.83
Fc1ccc2[nH]c(-c3cc(-c4ccc5c(c4)OCO5)n[nH]3)nc2c1 [7g, 2-(3-(benzo[d][1,3]dioxol-5-yl)-1H-pyrazol-5-yl)-5-fluoro-1H-benzo[d]imidazole] | 2740 | 4.95 | 5.77 | 2.96 | 2.78 | 4.66 | 3.64 | 4.81 | 7.13 | 3210 | 8.54 | 6.05 | 10 | 2710 | 8.24 | 4.5 | 6.44 | 3430 | 3020 | 9.53 | GI50 [21]: 2650 nM; GI50 [22]: 4210 nM; GI50 [23, 35]: 2560 nM; GI50 [24]: 2750 nM; GI50 [25]: 3530 nM; GI50 [26]: 4.43 µM; GI50 [27]: 2220 nM; GI50 [28]: 6.17 µM; GI50 [29]: 2950 nM; GI50 [30]: 4.57 µM; GI50 [31]: 5.62 µM; GI50 [32]: 4140 nM; GI50 [33]: 3630 nM; GI50 ([34]; read-out: GI50 value range): 0.34 to 10 µM; GI50 [34, 36]: 4.79 µM; anticancer activity (in words) [34]: significant anticancer activity; also recorded: pronounced activities; Log10 TGI mean graph midpoint (MG_MID) [34]: −4.19
